# Structures can show the parent of a compound that is named as a salt. Where two headings read alike, the source gives them in different places.
# Key:
# [1] = test system: U2OS cells; assay: Multiplex high-content protocol (nuclei gating, tubulin, mitochondrial mass, membrane permeability); assay type: cell-based, human; settings: for marked for tubulin effects while crossing no other phenotypic threshold / mitochondrial mass increase detected: threshold > 50%; for viability at 1 µM: Homo sapiens, read-out: healthy nuclei; for increase in mitochondrial mass in comparison to DMSO / tubulin effect: healthy nuclei only
# Method: Using the CQ1 high-content confocal microscope (Yokogawa), cellular shape and fluorescence was measured before and 12 h as well as 24 h after compound treatment. All compounds were diluted in DMSO to a concentration of 10 mM.
# The rather large spacing distance was used to create a robust readout, compensating potential plate variations and enabling automated screening without the use of autofocus. The overlap of the fluorescence emission spectra of the dyes was neglectable for all but the MitoTracker Red and Annexin V Alexa Fluor 680 (Supplementary Figure S9).
# All images were analyzed using the CellPathfinder software (Yokogawa). Segmentation of cells was performed as described earlier. First, the cells are classified in Hoechst High Intensity Objects or Normal Intensity Objects (Supplementary Table S7). All normal gated cells are further classified in healthy, fragmented or pyknosed nuclei (Supplementary Table S7). The pyknosed cells are gated in mitotic or apoptotic cells using seven features for the cell body and five features for the cell nuclei according to their Annexin V staining intensity (Supplementary Table S7). All cells that were classified as including a healthy nucleus are further gated into three phenotypic classes. […] Growth rate was calculated against non-treated cells and cells treated with DMSO 0.1% [61].
# [2] = test system: U2OS cells; assay: cells; settings: Homo sapiens
# [3] = test system: HCT116-FUCCI cells; parameters: method as in per compound as in column reference of Table S3; settings: literature annotation in Table S3; ref per compound as in Table S3; cited from earlier work
# [4] = test system: HCT116-FUCCI cells; assay: FUCCI cell cycle assay with nuclear gating; assay type: cell-based, human; settings: 10 µM, up to 70 h
# Method: For generation of a stable cell line, including the florescent ubiquitination-base cell cycle indicator FUCCI, the plasmid-based transposon system Sleeping Beauty was used. Vector (pSBbi_Fucci) and the Transposase SB100X have been described previously. […] Two days after transfection, cells were selected over 10 days using puromycin (1 µg/mL) and cultivated afterwards for two more weeks in McCoys 5A plus L-Glutamine (Gibco) supplemented by 10% FBS (Gibco) and Penicillin/Streptomycin (Gibco).
# Fluorescence and cellular shape were measured before and after compound treatment for 72 h every 12 h using the CQ1 high-content confocal microscope (Yokogawa). […]
# Image analysis was performed using the CellPathfinder software (Yokogawa). Segmentation of cells was performed as described earlier. First, the cells are classified in Hoechst High Intensity Objects or Normal Intensity Objects (Supplementary Table S7). All normal gated cells are further classified in healthy, fragmented or pyknosed nuclei (Supplementary Table S7). […] Total cell count was normalized against total cell count of cells treated with 0.1% DMSO.
smiles,measurement,setting,value
C=CC(=O)Nc1cccc(Oc2nc(Nc3ccc(N4CCN(C)CC4)cc3OC)ncc2Cl)c1 [WZ-4002],effect on tubulin,"[1]; 1 µM, 12 h",effect on tubulin
same,membrane permeabilization effects,"[1]; U2OS, 1 µM, 24 h",membrane permeabilization
Nc1ccc(C(=O)Nc2cccc(-c3nc(N4CCOCC4)c4oc5ncccc5c4n3)c2)cn1 [YM-201636],marked for tubulin effects while crossing no other phenotypic threshold,"[1]; U2OS, 1 µM",marked to have tubulin effects
CCn1cc(-c2ccnc3[nH]c(-c4cccc(CN(C)C)c4)cc23)c(-c2ccc(NC(=O)N(C)C)cc2)n1 [GSK1070916],mitochondrial mass increase detected,"[1]; U2OS, 1 µM",mitochondrial mass increase
CN1CCN(Cc2ccc(Nc3ncc(Cl)c(Nc4ccccc4S(=O)(=O)N(C)C)n3)cc2)CC1 [TP0903],viability at 1 µM,"[1]; U2OS, 1 µM, 24 h",≤ 40%
same,decrease of healthy nuclei count,"[1]; U2OS, 1 µM",more than 60%
CNCc1ccc(-c2cc(-c3nc(-c4ccc(S(=O)(=O)C(C)C)cc4)cnc3N)on2)cc1 [berzosertib],Hoechst High Intensity Objects (Hoechst intensity compared to normal nuclei),"[1]; U2OS, 1 µM",more than 50%
same,IC50,"[2]; 14 h, read-out: IC 50 14 h",0.0627 µM
same,IC50,"[2]; 26 h, read-out: IC 50 26 h",0.0641 µM
same,IC50,"[2]; 42 h, read-out: IC 50 42 h",0.0587 µM
same,IC50,"[2]; 56 h, read-out: IC 50 56 h",0.0565 µM
CN1CCN(Cc2cc(NC(=O)c3ccc4c(c3)CN(c3ccccc3)CC4)cc(C(F)(F)F)c2)CC1 [DDR-TRK-1N],healthy nuclei,"[1]; U2OS, 1 µM, 24 h",≤ 40%
Cc1cc(C)c(-n2ccn3nc(-c4cccnc4)cc23)cc1NC(=O)c1cc(C#N)cc(S(F)(F)(F)(F)F)c1 [BAY-826],marked for tubulin effects while crossing no other phenotypic threshold,"[1]; U2OS, 1 µM",marked to have tubulin effects
Cc1ccc(NC(=O)Nc2cc(C(F)(F)F)ccc2F)cc1Nc1ccc2c(c1)NC(=O)/C2=C\c1ccc[nH]1 [GNF-5837],viability at 1 µM,"[1]; U2OS, 1 µM, 24 h",≤ 40%
same,decrease of healthy nuclei count,"[1]; U2OS, 1 µM",more than 60%
CN[C@@H]1C[C@H]2O[C@@](C)([C@@H]1OC)n1c3ccccc3c3c4c(c5c6ccccc6n2c5c31)C(=O)NC4 [staurosporine],"mitochondrial mass, first analysis gating all cells independently of viability",[1]; 10 µM,increased mitochondrial mass
same,"tubulin effect, first analysis gating all cells independently of viability",[1]; 10 µM,tubulin effects
same,healthy nuclei (healthy cells),"[1]; U2OS, 10 µM, 24 h",less than 50%
same,known cell cycle effect,[3],dose-dependent cell
O=C1c2c(O)ccc(O)c2C(=O)c2c(NCCNCCO)ccc(NCCNCCO)c21 [mitoxantrone],change of FUCCI nuclei population in comparison to DMSO,[4],increase in green nuclei
same,known cell cycle effect,[3],delay in cell cycle
CCOc1cc(C(=O)N2CCC(N3CCN(C)CC3)CC2)ccc1Nc1ncc2c(n1)N(C1CCCC1)c1ccccc1C(=O)N2C [XMD17-109],mitochondrial mass increase detected,"[1]; U2OS, 1 µM",mitochondrial mass increase
Cc1[nH]c(/C=C2\C(=O)Nc3ccc(S(=O)(=O)N(C)c4cccc(Cl)c4)cc32)c(C)c1C(=O)N1CCN(C)CC1 [SU11274],marked for tubulin effects while crossing no other phenotypic threshold,"[1]; U2OS, 1 µM",marked to have tubulin effects
CC(=O)Nc1cccc(-n2c(=O)n(C3CC3)c(=O)c3c(Nc4ccc(I)cc4F)n(C)c(=O)c(C)c32)c1 [trametinib],change of FUCCI nuclei population in comparison to DMSO,[4],increase in red nuclei
C[C@@]1(C(=O)Nc2ccc(F)nc2)CCCN1c1nc(Nc2cc(C3CC3)n[nH]2)c2cccn2n1 [BMS-754807],viability at 1 µM,"[1]; U2OS, 1 µM, 24 h",≤ 40%
c1ccc2oc(-c3csc(C4CCN(Cc5nc6ncccc6[nH]5)CC4)n3)cc2c1 [BAY-179],healthy nuclei (healthy cells),"[1]; U2OS, 10 µM, 24 h",over 80%
same,increase in mitochondrial mass in comparison to DMSO,"[1]; U2OS, 10 µM, 24 h",over 60%
CN([C@@H](Cc1ccc(OS(=O)(=O)c2cccc3cnccc23)cc1)C(=O)N1CCN(c2ccccc2)CC1)S(=O)(=O)c1cccc2cnccc12 [KN-62],tubulin effects,"[1]; U2OS, 1 µM",> 90%
C[C@@H]1CC[C@@]2(OC1)O[C@H]1[C@@H](O)[C@H]3[C@@H]4CC[C@H]5C[C@@H](O[C@@H]6O[C@H](CO)[C@H](O[C@@H]7O[C@H](CO)[C@@H](O)[C@H](O[C@@H]8OC[C@@H](O)[C@H](O)[C@H]8O)[C@H]7O[C@@H]7O[C@H](CO)[C@H](O)[C@H](O[C@@H]8O[C@H](CO)[C@@H](O)[C@H](O)[C@H]8O)[C@H]7O)[C@H](O)[C@H]6O)[C@H](O)C[C@]5(C)[C@H]4CC[C@]3(C)[C@H]1[C@@H]2C [digitonin],healthy nuclei (healthy cells),"[1]; U2OS, 10 µM, 24 h",more than 50%
same,IC50,"[2]; 14 h, read-out: IC 50 14 h",10.6 µM
same,IC50,"[2]; 26 h, read-out: IC 50 26 h",11.6 µM
same,IC50,"[2]; 42 h, read-out: IC 50 42 h",11.5 µM
same,IC50,"[2]; 56 h, read-out: IC 50 56 h",15.1 µM
CC[C@@H]1C(=O)N(C)c2cnc(Nc3ccc(C(=O)N[C@H]4CC[C@H](N5CCN(CC6CC6)CC5)CC4)cc3OC)nc2N1C(C)C [volasertib],viability at 1 µM,"[1]; U2OS, 1 µM, 24 h",≤ 40%
O=C(CCCCCCNC(=O)c1cnc(N(c2ccccc2)c2ccccc2)nc1)NO [ricolinostat],IC50,"[2]; 26 h, read-out: IC 50 26 h",13.5 µM
same,IC50,"[2]; 42 h, read-out: IC 50 42 h",13.4 µM
same,IC50,"[2]; 56 h, read-out: IC 50 56 h",13.7 µM
COc1ccc(C[C@H](N)C(=O)N[C@H]2[C@@H](O)[C@H](n3cnc4c(N(C)C)ncnc43)O[C@@H]2CO)cc1 [puromycin],"mitochondrial mass, first analysis gating all cells independently of viability",[1]; 10 µM,increased mitochondrial mass
same,"tubulin effect, first analysis gating all cells independently of viability",[1]; 10 µM,tubulin effects
same,healthy nuclei (healthy cells),"[1]; U2OS, 10 µM, 24 h",less than 50%
same,known cell cycle effect,[3],effect on cell cycle
CCNc1cc(NC2CCC(O)CC2)nc(Nc2ccc3c(ccn3Cc3ccccc3)c2)n1 (stereo not drawn) [CINK4],marked for tubulin effects while crossing no other phenotypic threshold,"[1]; U2OS, 1 µM",marked to have tubulin effects
CS(=O)(=O)N1CCCC(NC(=O)[C@H](CCC2CCCCC2)NC(=O)c2ccc(CNC(=O)c3cnc4ccccn34)cc2)C1 (stereo partly drawn) [SR-302],tubulin effect,"[1]; U2OS, 10 µM, 24 h",more than 90%
Cc1c(P(=S)(c2ccccc2)c2ccccc2)n2ccccc2[n+]1C/C=C/c1ccccc1 [ML154],viability at 1 µM,"[1]; U2OS, 1 µM, 24 h",≤ 40%
CC[C@@]1(O)C(=O)OCc2c1cc1n(c2=O)Cc2cc3c(CN(C)C)c(O)ccc3nc2-1 [topotecan],mitochondrial mass increase detected,"[1]; U2OS, 1 µM",mitochondrial mass increase
same,healthy nuclei (healthy cells),"[1]; U2OS, 10 µM, 24 h",less than 50%
same,Hoechst High Intensity Objects,"[1]; U2OS, 10 µM, after 24 h, in one of two biological replicates",> 30%
same,change of FUCCI nuclei population in comparison to DMSO,[4],increase in green nuclei
COc1cc2ncnc(Nc3ccc(F)c(Cl)c3)c2cc1NC(=O)/C=C/CN1CCCCC1 [PF-299804],membrane permeabilization effects,"[1]; U2OS, 1 µM, 24 h",more than 65%
same,marked for tubulin effects while crossing no other phenotypic threshold,"[1]; U2OS, 1 µM",marked to have tubulin effects
CCOC(=O)Nc1cc(-c2ccc(C)c(NS(C)(=O)=O)c2)nn2c(C)nnc12 [Bromosporine],marked for tubulin effects while crossing no other phenotypic threshold,"[1]; U2OS, 1 µM",marked to have tubulin effects
same,known cell cycle effect,[3],increase of cells in G1
COc1cc2c(Nc3ccc(NC(=O)c4ccccc4)cc3)ncnc2cc1OCCCN1CCOCC1 [ZM447439],marked for tubulin effects while crossing no other phenotypic threshold,"[1]; U2OS, 1 µM",marked to have tubulin effects
COc1ncc(-c2ccc3nccc(-c4ccnnc4)c3c2)cc1NS(=O)(=O)c1ccc(F)cc1F [omipalisib],viability at 1 µM,"[1]; U2OS, 1 µM, 24 h",≤ 40%
same,decrease of healthy nuclei count,"[1]; U2OS, 1 µM",more than 60%
CCC1=C[C@@H]2CN(C1)Cc1c([nH]c3ccccc13)[C@@](C(=O)OC)(c1cc3c(cc1OC)N(C)[C@H]1[C@@](O)(C(=O)OC)[C@H](OC(C)=O)[C@]4(CC)C=CCN5CC[C@]31[C@@H]54)C2 [vinorelbine tartrate],tubulin effect,"[1]; U2OS, 10 µM, 24 h",increased tubulin effects
CN1CCCC(n2nc(Cc3ccc(Cl)cc3)c3ccccc3c2=O)CC1 (stereo not drawn) [azelastine],mitochondrial mass increase detected,"[1]; U2OS, 1 µM",mitochondrial mass increase
CC(C)Oc1ccccc1C(=O)Nc1ccccc1C(=O)Nc1cccc(S(=O)(=O)C(F)(F)F)c1 [ML-290],mitochondrial mass increase detected,"[1]; U2OS, 1 µM",mitochondrial mass increase
CCN1CCN(c2ccc(Nc3cc(N(C)C(=O)Nc4c(Cl)c(OC)cc(OC)c4Cl)ncn3)cc2)CC1 [infigratinib],viability at 1 µM,"[1]; U2OS, 1 µM, 24 h",≤ 40%
Cc1[nH]c2ccccc2c1CCNCc1ccc(/C=C/C(=O)NO)cc1 [Panobinostat],known cell cycle effect,[3],G 1/S cell cy cle arrest
COc1cc(Nc2ccnc3ccc(Br)cc23)cc(OC)c1OC [SGC-GAK-1],mitochondrial mass increase detected,"[1]; U2OS, 1 µM",mitochondrial mass increase
C=CCn1c(=O)c2cnc(Nc3ccc(N4CCN(C)CC4)cc3)nc2n1-c1cccc(C(C)(C)O)n1 [adavosertib],viability at 1 µM,"[1]; U2OS, 1 µM, 24 h",≤ 40%
Nc1c(C(=O)NCc2ccc(C(=O)NCCCC3CCCCC3)cc2)cnn1-c1ccccc1 [SR-318],marked for tubulin effects while crossing no other phenotypic threshold,"[1]; U2OS, 1 µM",marked to have tubulin effects
same,healthy nuclei (healthy cells),"[1]; U2OS, 10 µM, 24 h",over 80%
same,increase in mitochondrial mass in comparison to DMSO,"[1]; U2OS, 10 µM, 24 h",over 60%
same,tubulin effect,"[1]; U2OS, 10 µM, 24 h",more than 90%
Cc1cc(C)cc(-c2cnc3cc(Cl)c(-c4cccc(O)c4)cc3c2OCCCN)c1 [TC-G 1003],mitochondrial mass increase detected,"[1]; U2OS, 1 µM",mitochondrial mass increase
CCOC(=O)c1c(C)[nH]c2ccc3c(c12)CN1CCc2cc(OC)ccc2C1O3 (stereo not drawn) [PD 102807],mitochondrial mass increase detected,"[1]; U2OS, 1 µM",mitochondrial mass increase
Nc1ncnc2c1c(-c1cccc(OCc3ccccc3)c1)cn2[C@H]1C[C@@H](CN2CCC2)C1 [NVP-AEW541],mitochondrial mass increase detected,"[1]; U2OS, 1 µM",mitochondrial mass increase
